Source: patent US20250032532A1, “COMBINATION OF OCTAPEPTIDE AND HIGH MOLECULAR WEIGHT HYALURONIC ACID FOR TOPICAL APPLICATION” (Alastin Skincare, Inc., priority 2022, published 2025)

How the values were obtained:
Hyaluronidase 2 (HYAL2) = assay: RNA-Seq gene expression of HYAL2 in keratinocytes; type: cell-based, Human; details: 100 μg/ml, 24 hr
Experimental: (§1) Cell Lines. Human adult dermal fibroblast and keratinocyte cell lines were treated with 11 different compound treatments (plus DMSO control as treatment #12). Primary cells were plated in cell specific media at 5K or 10K cells per cm^2. Cells were plated in 48 well plates in triplicate, one cell line per plate. Media volume was 500ul per well. Outer two columns of wells were not used. Cells were cultured for 2 days in 37° C. 5% CO2 incubator. After 48 hours all the cell cultures were uniform and appeared healthy, no appreciable number of floating dead cells or evidence of vacuolization of cells that might indicate apoptotic or dying cells.
(§2) Compounds. Stocks of compounds 1 through 8 on the list below were prepared in PBS at 100× the concentration indicated in red type. […] This stock was 100× of final concentration. A 20 mg/ml stock of compound 10 (CBD) was prepared in DMSO. […]
(§3) RNA lysate preparation. […] All samples were shipped frozen on dry ice for RNA extraction, library construction and sequencing to 25 M paired end 100 bp reads per sample.
(§4) RNA-Seq. All the RNA samples were shipped frozen on dry ice for RNA extraction, library construction and sequencing to 25 M paired end 100 bp reads per sample. Differentially expressed genes were identified and pathway enrichment was assessed using the Reactome Pathway.

[1] = tested on: Hyaluronic Acid Synthase 2 (HAS2); assay: RNA-Seq gene expression of HAS2 in keratinocytes; type: cell-based, Human; details: 100 μg/ml, 24 hr
Experimental: as §1, §2, §3, §4

[2] = tested on: Early Growth Response 3 (EGR3); assay: RNA-Seq gene expression of EGR3 in keratinocytes; type: cell-based, Human; details: 100 μg/ml, 24 hr
Experimental: as §1, §2, §3, §4

Human dermal fibroblasts = assay: Octapeptide dose-response of high MW HA production (band density); type: cell-based; details: 72 hours
Experimental: Human dermal fibroblasts were treated with Octapeptide (1× and 10×; corresponding to 10 μg/ml and 100 μg/ml respectively) or left untreated. After 72 hours, the supernatant was collected, concentrated, run on an SDS-PAGE, stained and imaged. The experiment was conducted 4 times and the density of the bands from each supernatant were quantified (arbitrary units (AU)) using ImageJ. The data was graphed in FIG. 6 and represents the mean±standard deviation of the band densities for each treatment condition.

[3] = tested on: Hyaluronic Acid Synthase 2 (HAS2); assay: RNA-Seq gene expression of HAS2 in dermal fibroblasts; type: cell-based, Human; details: 100 μg/ml, 24 hr
Experimental: as §1, §2, §3, §4

Substance | fold-change in HYAL2 gene expression relative to non-treated cells (Hyaluronidase 2 (HYAL2)) | fold-change in HAS2 gene expression relative to non-treated cells [1] | upregulation of EGR3 gene expression relative to non-treated cells [2] | production of high MW HA in dermal fibroblasts (Human dermal fibroblasts; 1× and 10× (10 μg/ml and 100 μg/ml)) | density of high MW HA band (ImageJ) (Human dermal fibroblasts; 10× Octapeptide (100 μg/ml), 4 experiments) | fold-change in HAS2 gene expression relative to non-treated cells [3]
Hexapeptide-11 | potent downregulation | excellent upregulation | about seven |  |  | 
Octapeptide: proprietary peptide designed by Alastin; in some embodiments octapeptide-45, amino acid sequence GPHGVREA (Gly-Pro-His-Gly-Val-Arg-Glu-Ala) | modest downregulation |  |  | dose-responsive increase | vast increase in signal density | excellent stimulation
